No end group written: not given here.
Assays:
Assay in all cases: biochemical
Type in all cases: binding
[1] = target: A*0203 (Homo sapiens, UniProt P04439, A173T/D140Y/D185E/D98H/E277Q/G131W/G231S/I119V/I121R/I166T/I218V/L180W/L300P/L318F/N151K/N90K/P208A/P217A/Q86G/Q94H/R138H/R169H/T345S)
[2] = target: A*6802 (Homo sapiens, UniProt P04439, A269V/D140Y/D185E/E176V/E277Q/E87N/F33Y/G231S/I121R/I166T/I218V/L180W/L300P/L318F/N151K/P208A/P217A/Q86R/R138H/R169H/S129P/T345S/V36M)
[3] = target: A*0206 (Homo sapiens, UniProt P04439, D140Y/D185E/D98H/E176V/E277Q/F33Y/G131W/G231S/I119V/I121R/I166T/I218V/L300P/L318F/N151K/N90K/P208A/P217A/Q86G/Q94H/R138H/R169H/T345S)
[4] = target: HLA-A*0201 (HLA-A2.1) (Homo sapiens, UniProt P04439, D140Y/D185E/D98H/E176V/E277Q/G131W/G231S/I119V/I121R/I166T/I218V/L300P/L318F/N151K/N90K/P208A/P217A/Q86G/Q94H/R138H/R169H/T345S)
[5] = target: A*0202 (Homo sapiens, UniProt P04439, D140Y/D185E/D98H/E176V/E277Q/G131W/G231S/I119L/I121R/I166T/I218V/L180W/L300P/L318F/N151K/N90K/P208A/P217A/Q67R/Q86G/Q94H/R138H/R169H/T345S)

## NLLYGPDDPTI [Peptide 9013.0310]
[1]
  IC50: 8.65 µM
[2]
  IC50: > 20 µM
[3]
  IC50: > 20 µM
[4]
  IC50: 9.88 µM

## NLTVNNSGSYT [Peptide 9013.0303]
[5]
  IC50: > 20 µM
[1]
  IC50: > 20 µM
[3]
  IC50: > 20 µM
[4]
  IC50: > 20 µM

## NVAEGKEVLV [Peptide 9013.0133]
[5]
  IC50: 1.14 µM
[1]
  IC50: 19.6 µM
[3]
  IC50: > 20 µM
[4]
  IC50: > 20 µM

## QLHTQVLFI [Peptide 9013.0103]
[5]
  IC50: 0.022 µM
[1]
  IC50: 0.039 µM
[2]
  IC50: > 20 µM
[3]
  IC50: 5.52 µM

## QLSNGNRTLTV [Peptide 9013.0334]
[5]
  IC50: 0.02 µM
[1]
  IC50: 0.363 µM
[2]
  IC50: > 20 µM
[3]
  IC50: > 20 µM

## QLSNGNRTV [Peptide 9013.0095]
[1]
  IC50: 0.054 µM
[2]
  IC50: > 20 µM
[3]
  IC50: > 20 µM
[4]
  IC50: 15.1 µM

## RILQQLLFT [Peptide 1525.13]
[5]
  IC50: 5.69 µM
[1]
  IC50: 5.25 µM
[2]
  IC50: > 20 µM
[3]
  IC50: 0.491 µM

## RLQLSNGNRV [Peptide 9013.0224]
[1]
  IC50: 0.669 µM
[2]
  IC50: > 20 µM
[3]
  IC50: > 20 µM
[4]
  IC50: 17.6 µM

## RLTVKTITVSA [Peptide 9013.0319]
[5]
  IC50: 0.401 µM
[1]
  IC50: 0.091 µM
[2]
  IC50: 0.27 µM
[3]
  IC50: 1.36 µM

## RTLQQLLFA [Peptide 1525.18]
[1]
  IC50: 0.394 µM
[2]
  IC50: > 20 µM
[3]
  IC50: 0.018 µM
[4]
  IC50: 0.948 µM

## RVLQQLLFI [Peptide 1545.01]
[1]
  IC50: 0.024 µM
[2]
  IC50: 10.6 µM
[3]
  IC50: 0.0085 µM
[4]
  IC50: 0.027 µM

## SLMKFLQGSV [Peptide 1578.04]
[5]
  IC50: 0.031 µM
[1]
  IC50: 0.0046 µM
[3]
  IC50: 1.45 µM
[4]
  IC50: 0.436 µM

## SLPVSPRLQV [Peptide 9013.0222]
[1]
  IC50: 0.155 µM
[2]
  IC50: > 20 µM
[3]
  IC50: > 20 µM
[4]
  IC50: 7.31 µM

## TIESTPFNVV [Peptide 9013.0130]
[1]
  IC50: 0.671 µM
[2]
  IC50: 0.305 µM
[3]
  IC50: 3.23 µM
[4]
  IC50: 15.6 µM

## TLDATYLWWV [Peptide 9013.0158]
[5]
  IC50: 0.137 µM
[1]
  IC50: 0.468 µM
[3]
  IC50: 0.155 µM
[4]
  IC50: 0.061 µM

## TLELFIPNI [Peptide 9013.0060]
[1]
  IC50: 0.398 µM
[3]
  IC50: 0.084 µM
[4]
  IC50: 0.029 µM

## TLGIMIGVL [Peptide 9013.0108]
[1]
  IC50: 1.7 µM
[2]
  IC50: > 20 µM
[3]
  IC50: 9.06 µM
[4]
  IC50: 7.42 µM

## TLVLFIAKI [Peptide 9013.0106]
[1]
  IC50: 0.021 µM
[2]
  IC50: 13 µM
[3]
  IC50: 0.029 µM
[4]
  IC50: 16.6 µM

## TLVTTITVYA [Peptide 9013.0193]
[5]
  IC50: 0.011 µM
[1]
  IC50: 0.057 µM
[3]
  IC50: 1.74 µM
[4]
  IC50: 0.781 µM

## TLYAHIQCL [Peptide 1578.26]
[5]
  IC50: 0.0049 µM
[1]
  IC50: 0.0094 µM
[3]
  IC50: 0.42 µM
[4]
  IC50: 0.269 µM

## TQELFIPNV [Peptide 9013.0059]
[1]
  IC50: 3.32 µM
[2]
  IC50: 4.93 µM
[3]
  IC50: 0.055 µM
[4]
  IC50: 0.308 µM

## TQVLFIAKV [Peptide 9013.0105]
[1]
  IC50: 0.027 µM
[3]
  IC50: 0.046 µM
[4]
  IC50: 1.04 µM

## TVELFIPNITV [Peptide 9013.0300]
[1]
  IC50: > 20 µM
[2]
  IC50: 0.193 µM
[3]
  IC50: 1.64 µM
[4]
  IC50: 8.21 µM

## TVESTPFNV [Peptide 9013.0013]
[5]
  IC50: 1.91 µM
[1]
  IC50: 6.16 µM
[3]
  IC50: 2.39 µM
[4]
  IC50: 17.2 µM

## VLAEAMSAA [Peptide 1516.11]
[1]
  IC50: 0.00087 µM
[2]
  IC50: 0.474 µM
[3]
  IC50: 0.01 µM
[4]
  IC50: 0.024 µM

## VLFTCEPET [Peptide 9013.0045]
[1]
  IC50: 0.502 µM
[2]
  IC50: > 20 µM
[3]
  IC50: > 20 µM
[4]
  IC50: 2.54 µM

## WLRLLLTASL [Peptide 9013.0116]
[1]
  IC50: 0.032 µM
[2]
  IC50: 19.8 µM
[3]
  IC50: 17.4 µM
[4]
  IC50: 8.82 µM

## WLRLLLTASLL [Peptide 9013.0254]
[1]
  IC50: 0.012 µM
[2]
  IC50: > 20 µM
[3]
  IC50: 11.8 µM
[4]
  IC50: 3.48 µM

## WQRLLLTASV [Peptide 9013.0115]
[1]
  IC50: 0.036 µM
[2]
  IC50: > 20 µM
[3]
  IC50: 2.23 µM
[4]
  IC50: 5.11 µM

## YTLHVIKSDV [Peptide 9013.0151]
[1]
  IC50: 0.972 µM
[2]
  IC50: 0.016 µM
[3]
  IC50: 0.054 µM
[4]
  IC50: 4.37 µM

— US9340577B2, “HLA binding motifs and peptides and their uses” (priority 1992, dated 2016)
